Assay results: US8404726B2, “Activating agent for peroxisome proliferator activated receptor δ” (Nippon Chemiphar Co. Ltd., priority 2006, dated 2013)
One block for each compound: values may come before it.

How the values were obtained:
hPPARγ (LBD) = target: T1, hPPARγ (LBD) (Homo sapiens, UniProt P37231); test: PPAR activating function, GAL4-hPPARγ (LBD) luciferase reporter transfected into CV-1 cells; type: cell-based; conditions: control Rosiglitazone 10^−5 M = 100%
T1 construct: A receptor expression plasmid (pSG5-GAL4-hPPARα or γ or δ (LBD)); GAL4 (fusion partner); expressed in transfected cells; host or cells: CV-1 cells (ATCC)
T1 sequence (P37231 238-503 limits assumed): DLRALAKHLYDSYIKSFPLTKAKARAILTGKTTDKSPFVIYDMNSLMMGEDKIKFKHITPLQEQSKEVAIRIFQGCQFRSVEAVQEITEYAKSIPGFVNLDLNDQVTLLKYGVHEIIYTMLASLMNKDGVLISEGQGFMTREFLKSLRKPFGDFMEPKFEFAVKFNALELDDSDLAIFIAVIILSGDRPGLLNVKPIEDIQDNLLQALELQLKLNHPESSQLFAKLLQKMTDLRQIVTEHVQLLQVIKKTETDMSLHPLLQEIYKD
Description: (§1) The PPAR activating effect of the compound of the invention was determined by the following method:
(§2) A receptor expression plasmid (pSG5-GAL4-hPPARα or γ or δ (LBD)), a luciferase expression plasmid (MH100×4-TK-Luc), and a β-galactosidase expression plasmid (pCMX-β-GAL) are transfected into CV-1 cells (ATCC) (Kliewer, S. A. et al., (1992) Nature, 358: 771-774). After the gene transfer is conducted by utilizing a lipofection reagent (Lipofectamine 2000, Invitrogen), it is incubated for about 40 hours in the presence of a compound to be tested. The luciferase activity and β-GAL activity are measured on the soluble cells.
(§3) The luciferase activity is calibrated by the β-GAL activity. A relative ligand activity is calculated under the condition that the luciferase activity of the cells treated by GW-590735 for PPARα, Rosiglitazone for PPARγ, or GW-501516 for PPARδ is set to 100% to determine EC50 (see the below-mentioned Examples 14 and 15).
(§4) PPAR activating functions of test compounds (compounds of Examples) were measured in the manner described below.
as §2, with “(pUC8-MH100×4-TK-Luc),” for “(MH100×4-TK-Luc),”, “were” for “are”, “was” for “is”
(§5) The luciferase activity was calibrated by the β-GAL activity. A relative ligand activity was calculated under the condition that the luciferase activity of the cells treated by GW-590735 for PPARα, Rosiglitazone for […], or GW-501516 for PPARδ was set to 100% to determine EC50.
(§6) The tests were conducted in the same manner to Example 14 (1).

hPPARα (LBD) = target: T2, hPPARα (LBD) (Homo sapiens, UniProt Q07869); test: PPAR activating function, GAL4-hPPARα (LBD) luciferase reporter transfected into CV-1 cells; type: cell-based; conditions: control GW-590735 10^−6 M = 100%
T2 construct: A receptor expression plasmid (pSG5-GAL4-hPPARα or γ or δ (LBD)); GAL4 (fusion partner); expressed in transfected cells; host or cells: CV-1 cells (ATCC)
T2 sequence (Q07869 239-466 limits assumed): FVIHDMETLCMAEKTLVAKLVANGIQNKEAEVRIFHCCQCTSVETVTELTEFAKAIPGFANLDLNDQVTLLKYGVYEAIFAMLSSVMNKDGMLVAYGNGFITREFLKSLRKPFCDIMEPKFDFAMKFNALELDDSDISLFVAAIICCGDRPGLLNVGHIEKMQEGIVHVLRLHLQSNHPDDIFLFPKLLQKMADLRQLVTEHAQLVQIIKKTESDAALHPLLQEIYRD
Description: as §1, §2, §3, §4
as §2, with “(pUC8-MH100×4-TK-Luc),” for “(MH100×4-TK-Luc),”, “were” for “are”, “was” for “is”
as §5, §6

hPPARδ (LBD) = target: T3, hPPARδ (LBD) (Homo sapiens, UniProt Q03181); test: PPAR activating function, GAL4-hPPARδ (LBD) luciferase reporter transfected into CV-1 cells; type: cell-based
T3 construct: A receptor expression plasmid (pSG5-GAL4-hPPARα or γ or δ (LBD)); GAL4 (fusion partner); expressed in transfected cells; host or cells: CV-1 cells (ATCC)
T3 sequence (Q03181 211-439 limits assumed): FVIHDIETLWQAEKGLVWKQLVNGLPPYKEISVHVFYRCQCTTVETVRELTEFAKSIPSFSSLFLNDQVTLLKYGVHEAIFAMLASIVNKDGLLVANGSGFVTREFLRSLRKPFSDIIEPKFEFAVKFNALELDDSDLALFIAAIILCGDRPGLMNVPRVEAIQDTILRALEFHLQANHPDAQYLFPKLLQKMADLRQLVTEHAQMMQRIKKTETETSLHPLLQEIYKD
Description: as §1, §2, §3, §4
as §2, with “(pUC8-MH100×4-TK-Luc),” for “(MH100×4-TK-Luc),”, “were” for “are”, “was” for “is”
as §5, §6

[1] = 10^−6 M of the test compound (Examples 3 and 8)
[2] = 10^−7M of the test compound, control GW-501516 10^−7 M = 100%, CV-1 cells

Compound: CCCCCCc1nc(-c2ccc(C)cc2)sc1CCC(=O)c1ccc(CCC(=O)O)c(C)c1 [Example 1, 3-[4-[3-[4-Hexyl-2-(4-methylphenyl)thiazol-5-yl]propionyl]-2-methylphenyl]propionic acid]
PPAR activity PPARγ (relative value, control = 100%) (hPPARγ (LBD); 10^−7 M of the test compound): Inactive
PPAR activity PPARα (relative value, control = 100%) (hPPARα (LBD); 10^−7 M of the test compound): Inactive

Compound: Cc1cc(C(=O)CCc2nc(-c3ccccc3)oc2C(C)C)ccc1CCC(=O)O [Example 3, 3-[4-[3-(5-Isopropyl-2-phenyl-4-oxazolyl)propionyl]-2-methylphenyl]propionic acid]
PPAR activity PPARγ (relative value, control = 100%) (hPPARγ (LBD); [1]): Inactive
PPAR activity PPARα (relative value, control = 100%) (hPPARα (LBD); [1]): Inactive

Compound: Cc1cc(C(=O)C=Cc2sc(-c3ccc(C(F)(F)F)cc3)nc2C(C)C)ccc1C=CC(=O)O [Example 4, 3-[4-[3-[4-Isopropyl-2-[4-(trifluoromethyl)phenyl]thiazol-5-yl-]propenoyl]-2-methylphenyl]acrylic acid]
PPAR activity PPARδ (relative value, control = 100%) (hPPARδ (LBD); [2]): 22%
PPAR activity PPARγ (relative value, control = 100%) (hPPARγ (LBD); 10^−7 M of the test compound): Inactive
PPAR activity PPARα (relative value, control = 100%) (hPPARα (LBD); 10^−7 M of the test compound): Inactive

Compound: CC(C)c1oc(-c2ccc(Cl)cc2O)nc1CCC(=O)c1ccc(N(C)CC(=O)O)cc1 [Example 10, N-[4-[3-[2-(4-chloro-2-hydroxyphenyl)-5-isopropyl-4-oxazolyl]propionyl]phenyl]-N-methylglycine]
melting point: 166 to 168 °C
PPAR activity PPARδ: relative value (control = 100%) (hPPARδ (LBD); [2]): 69%
PPAR activity PPARγ: relative value (control = 100%) (hPPARγ (LBD); 10^−7 M of the test compound): Inactive
PPAR activity PPARα: relative value (control = 100%) (hPPARα (LBD); 10^−7 M of the test compound): Inactive

Compound: CC(C)c1nc(-c2ccc(C(F)(F)F)cc2)sc1CCC(=O)c1ccc(NCC(=O)O)cc1 [Example 8, N-[4-[3-[4-Isopropyl-2-[4-(trifluoromethyl)phenyl]thiazol-5-yl]propionyl]phenyl]glycine]
PPAR activity PPARγ (relative value, control = 100%) (hPPARγ (LBD); [1]): Inactive
PPAR activity PPARα (relative value, control = 100%) (hPPARα (LBD); [1]): Inactive

Compound: Cc1cc(C(=O)CCc2nc(-c3ccc(Cl)cc3O)oc2C(C)C)ccc1CCC(=O)O [Example 12, 3-[4-[3-[2-(4-Chloro-2-hydroxyphenyl)-5-isopropyl-4-oxazolyl]propionyl]-2-methylphenyl]propionic acid]
melting point: 141 to 144 °C
PPAR activity PPARδ: relative value (control = 100%) (hPPARδ (LBD); [2]): 93%
PPAR activity PPARγ: relative value (control = 100%) (hPPARγ (LBD); 10^−7 M of the test compound): Inactive
PPAR activity PPARα: relative value (control = 100%) (hPPARα (LBD); 10^−7 M of the test compound): Inactive

Compound: Cc1cc(C(=O)CCc2nc(-c3ccccc3O)oc2C(C)C)ccc1CCC(=O)O [Example 13, 3-[4-[3-[5-Isopropyl-2-(2-hydroxyphenyl)-4-oxazolyl]propionyl]-2-methylphenyl]propionic acid]
PPAR activity PPARδ: relative value (control = 100%) (hPPARδ (LBD); 10^−6 M of the test compound, control GW-501516 10^−7 M = 100%, CV-1 cells): 62%
PPAR activity PPARγ: relative value (control = 100%) (hPPARγ (LBD); 10^−6 M of the test compound): Inactive
PPAR activity PPARα: relative value (control = 100%) (hPPARα (LBD); 10^−6 M of the test compound): Inactive

Compound: CC(C)c1nc(-c2ccc(C(F)(F)F)cc2)sc1CCC(=O)c1ccc(N(C)CC(=O)O)cc1 [Example 7, N-[4-[3-[4-Isopropyl-2-[4-(trifluoromethyl)phenyl]thiazol-5-yl]propionyl]phenyl]-N-methylglycine]
PPAR activity PPARγ (relative value, control = 100%) (hPPARγ (LBD); 10^−7 M of the test compound): Inactive
PPAR activity PPARα (relative value, control = 100%) (hPPARα (LBD); 10^−7 M of the test compound): Inactive

Continued, values first:

agonist function for PPARδ (in words) (hPPARδ (LBD); summary of Tables 38 and 39): particularly strong agonist function
PPAR activity PPARγ (relative value, control = 100%) (hPPARγ (LBD); 10^−7 M of the test compound): Inactive
PPAR activity PPARα (relative value, control = 100%) (hPPARα (LBD); 10^−7 M of the test compound): Inactive
Compound: Cc1cc(C(=O)CCc2sc(-c3ccc(C(F)(F)F)cc3)nc2C(C)C)ccc1CCC(=O)O [Example 5, 3-[4-[3-[4-Isopropyl-2-[4-(trifluoromethyl)phenyl]thiazol-5-yl]propionyl]-2-methylphenyl]propionic acid]

PPAR activity PPARγ (relative value, control = 100%) (hPPARγ (LBD); 10^−7 M of the test compound): Inactive
PPAR activity PPARα (relative value, control = 100%) (hPPARα (LBD); 10^−7 M of the test compound): Inactive
Compound: C=C(CCc1sc(-c2ccc(C(F)(F)F)cc2)nc1C(C)C)c1ccc(CCC(=O)O)c(C)c1 [Example 6, 3-[4-[1-[2-[4-Isopropyl-2-[4-(trifluoromethyl)phenyl]thiazol-5-yl]ethyl]vinyl]-2-methylphenyl]propionic acid]

PPAR activity PPARδ: relative value (control = 100%) (hPPARδ (LBD); [2]): 89%
PPAR activity PPARγ: relative value (control = 100%) (hPPARγ (LBD); 10^−7 M of the test compound): Inactive
PPAR activity PPARα: relative value (control = 100%) (hPPARα (LBD); 10^−7 M of the test compound): Inactive
Compound: CCc1cc(C(=O)CCc2sc(-c3ccc(C(F)(F)F)cc3)nc2C(C)C)ccc1CCC(=O)O [Example 11, 3-[4-[3-[4-Isopropyl-2-[4-(trifluoromethyl)phenyl]-5-thiazolyl]propionyl]-2-ethylphenyl]propionic acid]

PPAR activity PPARγ (relative value, control = 100%) (hPPARγ (LBD); 10^−7 M of the test compound): Inactive
PPAR activity PPARα (relative value, control = 100%) (hPPARα (LBD); 10^−7 M of the test compound): Inactive
Compound: CC(C)c1cc(-c2ccc(C(F)(F)F)cc2)sc1CCC(=O)c1ccc(N(C)CC(=O)O)cc1 [Example 9, N-[4-[3-[3-Isopropyl-5-[4-(trifluoromethyl)phenyl]thiophen-2-yl]propionyl]phenyl]-N-methylglycine]

PPAR activity PPARγ (relative value, control = 100%) (hPPARγ (LBD); 10^−7 M of the test compound): Inactive
PPAR activity PPARα (relative value, control = 100%) (hPPARα (LBD); 10^−7 M of the test compound): Inactive
Compound: Cc1cc(C(=O)CCc2sc(-c3ccc(C(F)(F)F)cc3)cc2C(C)C)ccc1CCC(=O)O [Example 2, 3-[4-[3-[3-Isopropyl-5-[4-(trifluoromethyl)phenyl]thiophen-2-yl]propionyl]-2-methylphenyl]propionic acid]
